# Results reported in US20100216661A1, “Diagnostic Assay” (priority 2007, published 2010).
# System: anti-RhD monoclonal antibody T22 (LHM 169/80)
# Assay: Biopanning of phage-peptide libraries with anti-RhD T22
# Assay type: binding, Human
# Details: not given
# Excerpt: (§1) Three different phage libraries from New England Biolabs. (Ph.D. 7 and Ph.D. 12 displaying linear 7- and 12-mer peptides, respectively and Ph.D. C7C displaying 7-mer peptides constrained by a disulphide bridge at their termini) and a linear 15mer library (kindly provided by Prof. George P. Smith, University of Missouri) were used in biopanning experiments with 10 different monoclonal antibodies and a polyclonal preparation (Table 1).
# (§2) For each target antibody/library combination, a separate well of a 96-well Immulon 4 flat-bottomed ELISA plate (Thermo Labsystems) was coated with 5 μg of antibody in 150 μl ELISA coating buffer (15 mM Na2CO3, 35 mM NaHCO3, pH9.6). Plates were sealed and incubated at 4° C. overnight. Unbound antibody was discarded and 350 μl of blocking buffer (0.1M NaHCO3/3% skimmed milk powder) was added to each well. Plates were sealed and incubated for 1 hour at 4° C. The blocking buffer was removed and the wells were washed six times with 300 μl TBS/0.1% Tween 20. Approximately 2×10^11 plaque forming units (pfu) in 100 μl TBS/0.1% Tween 20 were added to each well and the plates were incubated at room temperature for 1 hour. Wells were washed ten times with 300 μl TBS/0.1% Tween 20. Bound phage were eluted by incubation with 100 μl of 0.2M glycine-HCl/BSA, pH2.2 (1 mg/ml) for 10 minutes, then neutralised with 15 μl of 1M Tris-HCL (pH9.1). An aliquot of the Round 1 eluate was removed and titred. The remainder of the eluted phage were amplified by infection of E. coli ER2538 cells for 4.5 hours at 37° C. The cultures were centrifuged for 10 minutes at 10,000 rpm at 4° C. The supernatants were recovered, ⅙ volume PEG/NaCl (20% polyethylene glycol 8000; 2.5M NaCl) added, then incubated overnight at 4° C. The PEG-precipitated phage were centrifuged at 10,000 rpm for 15 minutes at 4° C. The supernatant was removed and the phage pellet resuspended in 200 μl TBS. Two further rounds of panning were undertaken and approximately 2×10^11 pfu of the Round 2 or Round 3 amplified eluates were used as input phage. Round 3 eluates were titrated but not amplified. Individual plaques were amplified and subjected to PCR amplification, prior to DNA sequence analysis. The specificity of peptide-antibody binding was subsequently determined using both phage ELISA and SPOTs techniques.
row,Substance,Panning Antibody (antibody that selected the phage-peptide in biopanning)
1,RhD 31 (TITDCYPICVSP),RhD T22
2,RhD 36 (HHVFTPNCYPIC),RhD T22
3,RhD 28 (NDYSDSNQVPAS),RhD T22
4,RhD 26 (HSSWWLALAKPT),RhD T22
5,RhD 21 (WGLWWTG),RhD T22
6,RhD 20 (WGLWWHT),RhD T22
7,RhD 40 (QLLCFPICRPEPPVS),RhD T22
8,RhD 38 (GNWLFNSCYPLCFPL),RhD T22
9,RhD 18 (WGLWSTP),RhD T22
10,RhD 29 (FHWPRSWVTWQS),RhD T22
11,Rh0 37 (WHWSSLSWPALP),RhD T22
12,RhD 23 (DSRWLLP),RhD T22
13,RhD 24 (FHWWPRTQDPHR),RhD T22
14,RhD 33 (AMDCFPICLWNP),RhD T22
15,RhD 16 (WGLWFSN),RhD T22
16,RhD 22 (LLGLTET),RhD T22

# System: anti-RhD monoclonal antibody T10 (LHM76/55)
# Assay: Biopanning of phage-peptide libraries with anti-RhD T10
# Assay type: binding, Human
# Details: biopanning of phage-peptide libraries with anti-RhD monoclonal T10
# Excerpt: as §1, §2
row,Substance,Panning Antibody (antibody that selected the phage-peptide in biopanning)
1,RhD 67 (VWAVSLPWYRYP),RhD T10
2,RhD 46 (WHKNWWPPSTPN),RhD T10
3,RhD 68 (LDTYWYREHFRR),RhD T10
4,RhD 61 (SIWDLPLQYRGFGTS),RhD T10
5,RhD 54 (QHKTSITGHLEP),RhD T10
6,RhD 50 (WHWTFYTPLEST),RhD T10
7,RhD 49 (SMSQPKSQVNAH),RhD T10
8,RhD 58 (FHQRLWWPTHTP),RhD T10
9,RhD 73 (FHENWPS),RhD T10
10,RhD 53 (STYLNGPTGVDL),RhD T10
11,RhD 72 (WHPPQPS),RhD T10
12,RhD 47 (SMSSMLLAAQTV),RhD T10
13,RhD 66 (FHWRWSTFPEYP),RhD T10
14,RhD 52 (HSSWYIQHFPPL),RhD T10
15,RhD 45 (WHWQWTPWSIQP),RhD T10
16,RhD 75 (TQWYQIA),RhD T10
17,RhD 74 (FWWQVPA),RhD T10
18,RhD 76 (LPWFQLP),RhD T10
19,RhD 71 (VPWFRAP),RhD T10
20,RhD 60 (HAAFEPRGDVRHTLL),RhD T10

row,Substance,Panning Antibody (antibody that selected the phage-peptide in biopanning)
1,Rh0 43 (YYQRAPY),RhD T10
2,RhD 80 (IPWYKIT),RhD T10
3,RhD 59 (WHWRLYSANTP),RhD T10
4,RhD 63 (RNALHSLRTLSSSWV),RhD T10
5,RhD 62 (LWRLRGGSFPVISHG),RhD T10
6,RhD 69 (VHWRWWDQRVPM),RhD T10
7,RhD 51 (ESLSTDTYAILL),RhD T10
8,RhD 42 (WYHKAPY),RhD T10
9,RhD 55 (FHRWPTWPLPSP),RhD T10
10,RhD 79 (LPWYRH),RhD T10
11,RhD 64 (FHRHWWPPTLST),RhD T10
12,RhD 65 (RPHLLDWELNPV),RhD T10
13,RhD 70 (LPWYQLT),RhD T10
14,RhD 44 (HWKHPWGAWDTL),RhD T10
15,RhD 78 (LPWYATP),RhD T10
16,RhD 48 (QSHYRHISPAQV),RhD T10
17,RhD 57 (TLVYQPPWYRIA),RhD T10
18,RhD 41 (WYTKAPY),RhD T10
19,RhD 77 (TPLSKST),RhD T10
20,RhD 56 (VPPWVSVRTGPG),RhD T10

# Same assay, conditions: phage-peptide libraries; three rounds of panning
row,Substance,Selection by biopanning with anti-RhD monoclonal antibody T10
1,"RhD52: RhD peptide mimotope, Table 4 (HSSWYIQHFPPL)",selected

# System: polyclonal anti-RhD preparation (Human Anti-D Ig)
# Assay: Biopanning of phage-peptide libraries with polyclonal anti-RhD
# Assay type: binding
# Details: biopanning of phage-peptide libraries with polyclonal anti-RhD preparation
# Excerpt: as §1, §2
row,Substance,Panning Antibody (antibody that selected the phage-peptide in biopanning)
1,RhD 83 (FHSDWPGQTFTW),RhD
2,RhD 88 (AGYQIGMPNPLL),RhD
3,RhD 104 (WPHQVHKHIYRQ),RhD
4,RhD 97 (FHWHLQPQLWSY),RhD
5,RhD 95 (IHWWVKSPPPGS),RhD
6,RhD 102 (HSLKHTQMSYSS),RhD
7,RhD 93 (FHRPYYWPPTPL),RhD
8,RhD 105 (APPYPGPLPLSL),RhD
9,RhD 82 (FHANWPQSARDV),RhD
10,RhD 90 (SPTSFRQVFGFY),RhD
11,RhD 85 (FHSVYPWREAEG),RhD
12,RhD 92 (LHWWPTYGNNGM),RhD
13,RhD 99 (GQKTHNPFHLHP),RhD
14,RhD 91 (ALPELSSLPESAR),RhD
15,RhD 81 (FHSTWPWREAEG),RhD
16,RhD 96 (SHWWTSILATPS),RhD
17,RhD 86 (FHSNWPSAYTAR),RhD
18,RhD 100 (ATWSHHLSSAGL),RhD
19,RhD 103 (SVSVGMKPSPRP),RhD
20,RhD 84 (FHENWSTRPTTR),RhD
21,RhD 87 (FHSNWPSLIRAR),RhD
22,RhD 101 (FHRHYYPWALIQ),RhD
23,RhD 98 (LHREWIYPYLIS),RhD
24,RhD 94 (FHWRLPYPLPSS),RhD
25,RhD 89 (FHWRYPLPLPGQ),RhD

# Same assay, conditions: phage-peptide libraries; three rounds of panning
row,Substance,Selection by biopanning with polyclonal anti-RhD preparation
1,"RhD52: RhD peptide mimotope, Table 4 (HSSWYIQHFPPL)",selected
